Results taken from US12534452B2, “N-(1H-imidazol-2-yl)benzamide compound and pharmaceutical composition comprising the same as active ingredient” (KAINOS MEDICINE, INC., priority 2019, dated 2026).

Target: IRAK4 (Homo sapiens (Human), UniProt Q9NWZ3)
Test: In vitro IRAK4 phosphorylation activity assay
Format: biochemical
Conditions: [γ-33P]-ATP, myelin basic protein substrate, 40 minutes at room temperature; categories
Outline: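 Radiometric filter-binding assay, no compound–kinase preincubation; 8 mM MOPS pH 7.0, 0.2 mM EDTA, 10 mM Mg acetate, 0.33 mg/mL myelin basic protein substrate, [γ-33P]-ATP. Reaction 40 min at room temperature, stopped with phosphoric acid, scintillation counting; IC50 reported in categories.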

IRAK4, sequence (Q9NWZ3 whole entry): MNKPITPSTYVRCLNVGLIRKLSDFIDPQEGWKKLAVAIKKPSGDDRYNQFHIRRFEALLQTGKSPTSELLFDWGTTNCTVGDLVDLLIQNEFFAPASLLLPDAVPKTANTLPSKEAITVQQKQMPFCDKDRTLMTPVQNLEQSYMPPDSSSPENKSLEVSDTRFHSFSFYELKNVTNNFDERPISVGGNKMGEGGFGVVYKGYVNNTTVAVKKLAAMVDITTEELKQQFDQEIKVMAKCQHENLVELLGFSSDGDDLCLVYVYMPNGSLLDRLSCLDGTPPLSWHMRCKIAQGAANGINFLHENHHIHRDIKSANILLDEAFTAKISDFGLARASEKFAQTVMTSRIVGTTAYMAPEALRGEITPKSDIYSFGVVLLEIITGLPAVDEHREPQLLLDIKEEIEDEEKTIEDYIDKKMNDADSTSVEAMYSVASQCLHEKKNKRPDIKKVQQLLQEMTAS

| SMILES | IC50 |
| --- | --- |
| CN1CCN(C(=O)CCCc2cn(-c3ccccc3)c(NC(=O)c3cccc(-c4ccc5scnc5c4)c3)n2)CC1 [Example 284, 3-(benzo[d]thiazol-5-yl)-N-(4-(4-(4-methylpiperazin-1-yl)-4-oxobutyl)-1-phenyl-1H-imidazol-2-yl)benzamide] | > 100 nM |
| Cn1cc(-c2cccc(C(=O)Nc3nc(CCCC(=O)O)cn3-c3ccccc3)c2)cn1 [Example 140, 4-(2-(3-(1-methyl-1H-pyrazol-4-yl)benzamido)-1-phenyl-1H-imidazol-4-yl)butanoic acid] | 50 to 100 nM |
| CN(C)c1ccc(NC(=O)CCCc2cn(-c3ccccc3)c(NC(=O)c3cccc(-c4cnn(C)c4)c3)n2)cc1 [Example 155, N-(4-(4-((4-(dimethylamino)phenyl)amino)-4-oxobutyl)-1-phenyl-1H-imidazol-2-yl)-3-(1-methyl-1H-pyrazol-4-yl)benzamide] | < 50 nM |
| O=C(CCCc1cn(-c2ccccc2)c(NC(=O)c2cccc(-c3ccc4cn[nH]c4c3)c2)n1)NC1CC1 [Example 250, N-(4-(4-(cyclopropylamino)-4-oxobutyl)-1-phenyl-1H-imidazol-2-yl)-3-(1H-indazol-6-yl)benzamide] | < 50 nM |
| Cn1cc(-c2cccc(C(=O)Nc3nc(CCCC(=O)N4CCN(C(C)(C)C)CC4)cn3-c3ccccc3)c2)cn1 [Example 181, N-(4-(4-(4-(tert-butyl)piperazin-1-yl)-4-oxobutyl)-1-phenyl-1H-imidazol-2-yl)-3-(1-methyl-1H-pyrazol-4-yl)benzamide] | < 50 nM |
| CNC(=O)CCCc1cn(-c2ccccc2)c(NC(=O)c2cccc(-c3ccc4[nH]ncc4c3)c2)n1 [Example 244, 3-(1H-indazol-5-yl)-N-(4-(4-(methylamino)-4-oxobutyl)-1-phenyl-1H-imidazol-2-yl)benzamide] | < 50 nM |
| COC[C@H]1CCCN1NC(=O)Cc1cn(-c2ccccc2)c(NC(=O)c2cccc(-c3cn[nH]c3)c2)n1 [Example 45, (R)—N-(4-(2-((2-(methoxymethyl)pyrrolidin-1-yl)amino)-2-oxoethyl)-1-phenyl-1H-imidazol-2-yl)-3-(1H-pyrazol-4-yl)benzamide] | 50 to 100 nM |
| O=C(O)CCCCc1cn(-c2ccccc2)c(NC(=O)c2cccc(-c3cn[nH]c3)c2)n1 [Example 78, 5-(2-(3-(1H-pyrazol-4-yl)benzamido)-1-phenyl-1H-imidazol-4-yl)pentanoic acid] | < 50 nM |
| O=C(Nc1nc(CCC(=O)N2CC[C@H](C(=O)O)C2)cn1-c1ccccc1)c1cccc(-c2cn[nH]c2)c1 [Example 26, (S)-1-(3-(2-(3-(1H-pyrazol-4-yl)benzamido)-1-phenyl-1H-imidazol-4-yl)propanoyl)pyrrolidine-3-carboxylic acid] | > 100 nM |
| O=C(Nc1nc(CCCCCCN2CCOCC2)cn1-c1ccccc1)c1cccc(-c2cn[nH]c2)c1 [Example 123, N-(4-(6-morpholinohexyl)-1-phenyl-1H-imidazol-2-yl)-3-(1H-pyrazol-4-yl)benzamide] | < 50 nM |
| CN1CCN(C(=O)CCCc2cn(-c3ccccc3)c(NC(=O)c3cccc(-c4ccc5ncsc5c4)c3)n2)CC1 [Example 280, 3-(benzo[d]thiazol-6-yl)-N-(4-(4-(4-methylpiperazin-1-yl)-4-oxobutyl)-1-phenyl-1H-imidazol-2-yl)benzamide] | < 50 nM |
| Cn1cc(-c2cccc(C(=O)Nc3nc(CCCC(=O)NC4CC4)cn3-c3ccc(F)cc3)c2)cn1 [Example 300, N-(4-(4-(cyclopropylamino)-4-oxobutyl)-1-(4-fluorophenyl)-1H-imidazol-2-yl)-3-(1-methyl-1H-pyrazol-4-yl)benzamide] | < 50 nM |
| O=C(CCCc1cn(-c2ccccc2)c(NC(=O)c2cccc(-c3ccncc3)c2)n1)NC1CC1 [Example 267, N-(4-(4-(cyclopropylamino)-4-oxobutyl)-1-phenyl-1H-imidazol-2-yl)-3-(pyridin-4-yl)benzamide] | < 50 nM |
| Cn1cc(-c2cccc(C(=O)Nc3nc(CCCC(=O)NC4CCNCC4)cn3-c3ccccc3)c2)cn1 [Example 214, 3-(1-methyl-1H-pyrazol-4-yl)-N-(4-(4-oxo-4-(piperidin-4-ylamino)butyl)-1-phenyl-1H-imidazol-2-yl)benzamide] | > 100 nM |
| O=C(Nc1nc(CCCCCC(=O)N2CCCCCC2)cn1-c1ccccc1)c1cccc(-c2ccc3scnc3c2)c1 [Example 289, N-(4-(6-(azepan-1-yl)-6-oxohexyl)-1-phenyl-1H-imidazol-2-yl)-3-(benzo[d]thiazol-5-yl)benzamide] | > 100 nM |
| O=C(Nc1nc(CCCC(=O)N2CCCCC2)cn1-c1ccccc1)c1cccc(-c2ccc3[nH]ncc3c2)c1 [Example 246, 3-(1H-indazol-5-yl)-N-(4-(4-oxo-4-(piperidin-1-yl)butyl)-1-phenyl-1H-imidazol-2-yl)benzamide] | < 50 nM |
| Cn1cc(-c2cccc(C(=O)Nc3nc(CCCCCCN4CCCCCC4)cn3-c3ccccc3)c2)cn1 [Example 223, N-(4-(6-(azepan-1-yl)hexyl)-1-phenyl-1H-imidazol-2-yl)-3-(1-methyl-1H-pyrazol-4-yl)benzamide] | < 50 nM |
| CN(C)CCNC(=O)CCCc1cn(-c2ccccc2)c(NC(=O)c2cccc(-c3cnn(C)c3)c2)n1 [Example 162, N-(4-(4-((2-(dimethylamino)ethyl)amino)-4-oxobutyl)-1-phenyl-1H-imidazol-2-yl)-3-(1-methyl-1H-pyrazol-4-yl)benzamide] | 50 to 100 nM |
| C[C@H]1CCCCN1C(=O)CCCCc1cn(-c2ccccc2)c(NC(=O)c2cccc(-c3cn[nH]c3)c2)n1 [Example 82, (S)—N-(4-(5-(2-methylpiperidin-1-yl)-5-oxopentyl)-1-phenyl-1H-imidazol-2-yl)-3-(1H-pyrazol-4-yl)benzamide] | 50 to 100 nM |
| CN(C)C1CCN(C(=O)CCCc2cn(-c3ccccc3)c(NC(=O)c3cccc(-c4cnn(C)c4)c3)n2)CC1 [Example 146, N-(4-(4-(4-(dimethylamino)piperidin-1-yl)-4-oxobutyl)-1-phenyl-1H-imidazol-2-yl)-3-(1-methyl-1H-pyrazol-4-yl)benzamide] | < 50 nM |
| O=C(Nc1nc(CCCCCCN2CCOCC2)cn1-c1ccccc1)c1cccc(-c2ccc3[nH]ncc3c2)c1 [Example 254, 3-(1H-indazol-5-yl)-N-(4-(6-morpholinohexyl)-1-phenyl-1H-imidazol-2-yl)benzamide] | < 50 nM |
| CN(C)C1CCN(C(=O)CCCCCc2cn(-c3ccccc3)c(NC(=O)c3cccc(-c4ccc5scnc5c4)c3)n2)CC1 [Example 291, 3-(benzo[d]thiazol-5-yl)-N-(4-(6-(4-(dimethylamino)piperidin-1-yl)-6-oxohexyl)-1-phenyl-1H-imidazol-2-yl)benzamide] | > 100 nM |

Other lines, results leading:

| IC50 | SMILES |
| --- | --- |
| < 50 nM | O=C(Nc1nc(CCO)cn1-c1ccccc1)c1cccc(-c2cn[nH]c2)c1 [Example 103, N-(4-(2-hydroxyethyl)-1-phenyl-1H-imidazol-2-yl)-3-(1H-pyrazol-4-yl)benzamide] |
| < 50 nM | COC(=O)CCc1cn(-c2ccccc2)c(NC(=O)c2cccc(-c3cn[nH]c3)c2)n1 [Example 18, methyl 3-(2-(3-(1H-pyrazol-4-yl)benzamido)-1-phenyl-1H-imidazol-4-yl)propanoate] |
| < 50 nM | CN1CCN(C(=O)CCCc2cn(-c3ccccc3)c(NC(=O)c3cccc(-c4cnn(C)c4)c3)n2)CC1 [Example 143, 3-(1-methyl-1H-pyrazol-4-yl)-N-(4-(4-(4-methylpiperazin-1-yl)-4-oxobutyl)-1-phenyl-1H-imidazol-2-yl)benzamide] |
| < 50 nM | Cn1cc(-c2cccc(C(=O)Nc3nc(CCCC(=O)N4CCC(C)(C)CC4)cn3-c3ccccc3)c2)cn1 [Example 167, N-(4-(4-(4,4-dimethylpiperidin-1-yl)-4-oxobutyl)-1-phenyl-1H-imidazol-2-yl)-3-(1-methyl-1H-pyrazol-4-yl)benzamide] |
| < 50 nM | CN1CCN(CCNC(=O)CCCc2cn(-c3ccccc3)c(NC(=O)c3cccc(-c4cnn(C)c4)c3)n2)CC1 [Example 187, 3-(1-methyl-1H-pyrazol-4-yl)-N-(4-(4-((2-(4-methylpiperazin-1-yl)ethyl)amino)-4-oxobutyl)-1-phenyl-1H-imidazol-2-yl)benzamide] |
| < 50 nM | O=C(CCCc1cn(-c2ccccc2)c(NC(=O)c2cccc(-c3cn[nH]c3F)c2)n1)NC1CC1 [Example 229, N-(4-(4-(cyclopropylamino)-4-oxobutyl)-1-phenyl-1H-imidazol-2-yl)-3-(5-fluoro-1H-pyrazol-4-yl)benzamide] |
| < 50 nM | O=C(Nc1nc(CCCCN2CCCC2=O)cn1-c1ccccc1)c1cccc(-c2ccc3[nH]ncc3c2)c1 [Example 258, 3-(1H-indazol-5-yl)-N-(4-(4-(2-oxopyrrolidin-1-yl)butyl)-1-phenyl-1H-imidazol-2-yl)benzamide] |
| < 50 nM | Cn1cc(-c2cccc(C(=O)Nc3nc(CCCCCCN4CCCC4=O)cn3-c3ccccc3)c2)cn1 [Example 225, 3-(1-methyl-1H-pyrazol-4-yl)-N-(4-(6-(2-oxopyrrolidin-1-yl)hexyl)-1-phenyl-1H-imidazol-2-yl)benzamide] |
| < 50 nM | O=C(CCc1cn(-c2ccccc2)c(NC(=O)c2cccc(-c3cn[nH]c3)c2)n1)Nc1ccccc1 [Example 6, N-(4-(3-oxo-3-(phenylamino)propyl)-1-phenyl-1H-imidazol-2-yl)-3-(1H-pyrazol-4-yl)benzamide] |
| < 50 nM | CNC(=O)CCCc1cn(C2CCCCC2)c(NC(=O)c2cccc(-c3cn[nH]c3)c2)n1 [Example 296, N-(1-cyclohexyl-4-(4-(methylamino)-4-oxobutyl)-1H-imidazol-2-yl)-3-(1H-pyrazol-4-yl)benzamide] |
| < 50 nM | Cn1cc(-c2cccc(C(=O)Nc3nc(CCCCN4CCCC4=O)cn3-c3ccccc3)c2)cn1 [Example 224, 3-(1-methyl-1H-pyrazol-4-yl)-N-(4-(4-(2-oxopyrrolidin-1-yl)butyl)-1-phenyl-1H-imidazol-2-yl)benzamide] |
| < 50 nM | N[C@@H]1CCCN(C(=O)CCc2cn(-c3ccccc3)c(NC(=O)c3cccc(-c4cn[nH]c4)c3)n2)C1 [Example 40, (R)—N-(4-(3-(3-aminopiperidin-1-yl)-3-oxopropyl)-1-phenyl-1H-imidazol-2-yl)-3-(1H-pyrazol-4-yl)benzamide] |
